*1 amine or outer side, *2 acyl side, *3 side chain or, on linkers, in order; H or OH if unused. Where a SMILES comes first, the peptide text is derived from it. Side-chain parts run from the residue outwards. [ ]: non-standard residue; d: D form. The star is where a group is joined. C20 diacid = O=C(O)CCCCCCCCCCCCCCCCCCC(=O)*; C16 diacid = O=C(O)CCCCCCCCCCCCCCC(=O)*; γGlu = O=C(O)[C@H](CCC(=O)[*:2])N[*:1]; Pentanoyl = CCCCC(=O)*; AEEA = NCCOCCOCC(=O)O; Aib = CC(C)(N)C(=O)O
Key:
CFR1R receptor = molecular target: T1, CFR1R receptor (Homo sapiens, UniProt P34998); test: Activity at anti-target CFR1R receptor, cAMP assay in CRF1R-overexpression CHO-K1 cells; assay type: cell-based; settings: 100% = Sauvagine at 100 nM; for EC50: cAMP
T1 construct: host or cells: CHO-K1 (clone 2)
T1 sequence (P34998 24-415): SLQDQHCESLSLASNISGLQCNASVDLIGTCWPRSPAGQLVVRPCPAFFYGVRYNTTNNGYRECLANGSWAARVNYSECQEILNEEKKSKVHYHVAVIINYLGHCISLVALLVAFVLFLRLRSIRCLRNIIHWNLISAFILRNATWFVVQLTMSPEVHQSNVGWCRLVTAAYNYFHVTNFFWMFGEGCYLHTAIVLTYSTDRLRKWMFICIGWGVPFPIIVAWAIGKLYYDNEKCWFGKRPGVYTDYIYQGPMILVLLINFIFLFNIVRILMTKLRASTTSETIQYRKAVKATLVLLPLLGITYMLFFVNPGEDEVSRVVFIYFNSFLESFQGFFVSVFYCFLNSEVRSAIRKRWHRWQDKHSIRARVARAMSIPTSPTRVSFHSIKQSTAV
Method in brief: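 Clone 2 cells were cultured in F12 (Hams)/10% FBS/400 μg/ml G418 at 37° C./5% CO2, frozen in medium with 10% DMSO, and thawed vials used. The protocol followed the TeloHAEC procedure, with 4000 cells/well final and Sauvagine at 100 nM defining 100% activation.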

Sprague Dawley rats = test: Effect on systolic blood pressure, telemetry in Sprague Dawley rats; assay type: in vivo, rat; settings: 0.1 mg/kg SC
Method: The effect of the compounds on systolic blood pressure was determined in telemetry studies in Sprague Dawley rats at a dosage of 0.1 mg/kg SC.
The rats were previously implanted with a telemetry device (DSI, Saint-Paul, USA, HD-S10, HD-S11 or HD S21) and allowed to recover for a minimum period of 2 weeks before treatment with vehicle or the different peptides. Blood pressure (BP) was recorded through a catheter inserted into the abdominal aorta. The device body was placed in the abdomen. The animals were allowed to recover from surgery for at least 10 days before the first administration of test drug or vehicle.
The chronically instrumented rats of the telemetry studies were individually housed immediately after surgery and then housed in pairs with a non-instrumented companion after recovery.
Systolic blood pressure was recorded for one hour before treatment (basal period). Thereafter, the subcutaneous administration of the test compound or its vehicle was performed, under continuous recording of the signal up to 48 hours, analysed and expressed as % change from baseline.
Representative data are presented in Table 13 below, in which “Duration of action” indicates the last time point for which an effect on BP was still observed (n=2 animals/peptide)

human CRF2a receptor = molecular target: T2, human CRF2a receptor (Homo sapiens, UniProt Q13324); test: Activity at human CRF2a receptor, cAMP functional assay in TeloHEAC cells; assay type: cell-based; settings: TeloHEAC cells stably expressing human CRF2a receptor, relative to urocortin 2 (100 nM = 100%)
T2 construct: expressed in transfected cells; host or cells: TeloHEAC cells
T2 sequence (Q13324 1-411): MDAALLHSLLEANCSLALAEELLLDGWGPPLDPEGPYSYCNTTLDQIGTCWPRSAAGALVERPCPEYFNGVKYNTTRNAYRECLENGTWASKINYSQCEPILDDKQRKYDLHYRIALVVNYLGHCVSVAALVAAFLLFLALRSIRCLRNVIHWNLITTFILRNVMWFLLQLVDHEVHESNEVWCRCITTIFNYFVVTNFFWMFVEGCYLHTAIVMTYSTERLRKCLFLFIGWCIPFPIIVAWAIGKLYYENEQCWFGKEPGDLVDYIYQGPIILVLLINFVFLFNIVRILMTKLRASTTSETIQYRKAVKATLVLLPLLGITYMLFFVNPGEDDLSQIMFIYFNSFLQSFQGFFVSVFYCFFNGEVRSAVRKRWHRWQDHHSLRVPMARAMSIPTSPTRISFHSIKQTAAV
Method in brief: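 TeloHEAC cells stably expressing human CRF2a (10000 cells/well) were treated with 16-point 1:2 compound dilutions in HBSS/20 mM HEPES with IBMX for 30 min at 37° C. cAMP was read by HTRF (665/620 nm ratio). EC50 was the concentration giving 50% activation, with 100 nM urocortin 2 set as 100%.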

Structure (SMILES)	Emax (% I) (CFR1R receptor; listed as 10)	Systolic blood pressure (Mean) % change from baseline, 8 h (Sprague Dawley rats; 8 h, n=2)	Systolic blood pressure (Mean) % change from baseline, 12 h (Sprague Dawley rats; 12 h, n=2)	Systolic blood pressure (Mean) % change from baseline, 24 h (Sprague Dawley rats; 24 h, n=2)	Duration of action (Sprague Dawley rats; last time point with an effect on BP still observed)	EC50 (human CRF2a receptor)	Emax (% I) (CFR1R receptor)	EC50 (CFR1R receptor)
CC[C@H](C)[C@H](NC(C)=O)C(=O)N[C@H](C(=O)N[C@@H](CC(C)C)C(=O)N[C@@H](CO)C(=O)N[C@@H](CC(C)C)C(=O)N[C@@H](CC(=O)O)C(=O)N[C@@H](C(=O)N1CCC[C@H]1C(=O)N[C@H](C(=O)N[C@@H](CCCCN)C(=O)N[C@@H](CC(C)C)C(=O)N[C@@H](CCCCNC(=O)CC[C@H](NC(=O)CCCCCCCCCCCCCCC(=O)O)C(=O)O)C(=O)N[C@@H](CCCCN)C(=O)N[C@H](C(=O)N[C@@H](CC(C)C)C(=O)N[C@@H](CC(C)C)C(=O)N[C@@H](CCC(=O)O)C(=O)N[C@@H](CCC(N)=O)C(=O)N[C@@H](CCC(=O)O)C(=O)N[C@@H](CCCCN)C(=O)N[C@@H](CCC(N)=O)C(=O)N[C@@H](CCCCN)C(=O)N[C@@H](CCCCN)C(=O)N[C@@H](CCC(N)=O)C(=O)N[C@@H](CCCNC(=N)N)C(=O)N[C@@H](CCC(=O)O)C(=O)N[C@@H](CCC(N)=O)C(=O)N[C@@H](C)C(=O)N[C@@H](CCC(=O)O)C(=O)N[C@H](C(=O)N[C@@H](CC(N)=O)C(=O)N[C@@H](CCC(=O)O)C(=O)N[C@@H](CCC(N)=O)C(=O)N[C@H](C(=O)N[C@@H](CC(C)C)C(=O)N[C@@H](C)C(=O)N[C@@H](CCC(N)=O)C(=O)N[C@H](C(N)=O)C(C)C)[C@@H](C)CC)[C@@H](C)O)[C@@H](C)CC)[C@@H](C)CC)C(C)C)C(C)C [SEQ ID No. 56, reference compound] (Ac-IVLSLD[dV]PIKLK([γGlu-C16 diacid])KILLEQEKQKKQREQAETNEQILAQV-NH2)	26 % I	−24%	−11%	2%	18 h			
CCCCC(=O)N[C@H](C(=O)N[C@@H](CC(C)C)C(=O)N[C@@H](CO)C(=O)N[C@@H](CC(C)C)C(=O)N[C@@H](CC(=O)O)C(=O)N[C@@H](C(=O)N1CCC[C@H]1C(=O)N[C@H](C(=O)NCC(=O)N[C@@H](CC(C)C)C(=O)N[C@@H](CCCCNC(=O)CC[C@H](NC(=O)CCCCCCCCCCCCCCCCCCC(=O)O)C(=O)O)C(=O)N[C@@H](CCCCN)C(=O)N[C@H](C(=O)N[C@@H](CC(C)C)C(=O)N[C@@H](CC(C)C)C(=O)N[C@@H](CCC(=O)O)C(=O)N[C@@H](CCC(N)=O)C(=O)N[C@@H](CCC(=O)O)C(=O)N[C@@H](CCCCN)C(=O)N[C@@H](CCC(N)=O)C(=O)N[C@@H](CCCCN)C(=O)N[C@@H](CCCCN)C(=O)N[C@@H](CCC(N)=O)C(=O)N[C@@H](CCCNC(=N)N)C(=O)N[C@@H](CCC(=O)O)C(=O)N[C@@H](CCC(N)=O)C(=O)N[C@@H](C)C(=O)N[C@@H](CCC(=O)O)C(=O)N[C@H](C(=O)N[C@@H](CC(N)=O)C(=O)NC(C)(C)C(=O)N[C@@H](CCC(N)=O)C(=O)N[C@H](C(=O)N[C@@H](CC(C)C)C(=O)N[C@@H](C)C(=O)N[C@@H](CCC(N)=O)C(=O)N[C@H](C(N)=O)C(C)C)[C@@H](C)CC)[C@@H](C)O)[C@@H](C)CC)[C@@H](C)CC)C(C)C)C(C)C [compound 228] (Pentanoyl-VLSLD[dV]PIGLK([γGlu-C20 diacid])KILLEQEKQKKQREQAETN[Aib]QILAQV-NH2)						0.19 nM	62 % I	
CC[C@H](C)[C@H](NC(C)=O)C(=O)N[C@H](C(=O)N[C@@H](CC(C)C)C(=O)N[C@@H](CO)C(=O)N[C@@H](CC(C)C)C(=O)N[C@@H](CC(=O)O)C(=O)N[C@@H](C(=O)N1CCC[C@H]1C(=O)N[C@H](C(=O)N[C@@H](CCCCN)C(=O)N[C@@H](CC(C)C)C(=O)N[C@@H](CCCCNC(=O)COCCOCCNC(=O)COCCOCCNC(=O)CC[C@H](NC(=O)CCCCCCCCCCCCCCCCCCC(=O)O)C(=O)O)C(=O)N[C@@H](CCCCN)C(=O)N[C@H](C(=O)N[C@@H](CC(C)C)C(=O)N[C@@H](CC(C)C)C(=O)N[C@@H](CCC(=O)O)C(=O)N[C@@H](CCC(N)=O)C(=O)N[C@@H](CCC(=O)O)C(=O)N[C@@H](CCCCN)C(=O)N[C@@H](CCC(N)=O)C(=O)N[C@@H](CCCCN)C(=O)N[C@@H](C)C(=O)N[C@@H](CCC(N)=O)C(=O)N[C@@H](CCCNC(=N)N)C(=O)N[C@@H](CCC(=O)O)C(=O)N[C@@H](CCC(N)=O)C(=O)N[C@@H](C)C(=O)N[C@@H](CCC(=O)O)C(=O)N[C@H](C(=O)N[C@@H](CC(N)=O)C(=O)NC(C)(C)C(=O)N[C@@H](CCC(N)=O)C(=O)N[C@H](C(=O)N[C@@H](CC(C)C)C(=O)N[C@@H](C)C(=O)N[C@@H](CCC(N)=O)C(=O)N[C@H](C(N)=O)C(C)C)[C@@H](C)CC)[C@@H](C)O)[C@@H](C)CC)[C@@H](C)CC)C(C)C)C(C)C [compound 240] (Ac-IVLSLD[dV]PIKLK([AEEA-AEEA-γGlu-C20 diacid])KILLEQEKQKAQREQAETN[Aib]QILAQV-NH2)						0.22 nM	4 % I	> 250 nM
CC[C@H](C)[C@H](NC(C)=O)C(=O)N[C@H](C(=O)N[C@@H](CC(C)C)C(=O)N[C@@H](CO)C(=O)N[C@@H](CC(C)C)C(=O)N[C@@H](CC(=O)O)C(=O)N[C@@H](C(=O)N1CCC[C@H]1C(=O)N[C@H](C(=O)N[C@@H](CCCCN)C(=O)N[C@@H](CC(C)C)C(=O)N[C@@H](CCCCNC(=O)CC[C@H](NC(=O)CC[C@H](NC(=O)CCCCCCCCCCCCCCCCCCC(=O)O)C(=O)O)C(=O)O)C(=O)N[C@@H](CCCCN)C(=O)N[C@H](C(=O)N[C@@H](CC(C)C)C(=O)N[C@@H](CC(C)C)C(=O)N[C@@H](CCC(=O)O)C(=O)N[C@@H](CCC(N)=O)C(=O)N[C@@H](CCC(=O)O)C(=O)N[C@@H](CCCCN)C(=O)N[C@@H](CCC(N)=O)C(=O)N[C@@H](CCCCN)C(=O)N[C@@H](C)C(=O)N[C@@H](CCC(N)=O)C(=O)N[C@@H](CCCNC(=N)N)C(=O)N[C@@H](CCC(=O)O)C(=O)N[C@@H](CCC(N)=O)C(=O)N[C@@H](C)C(=O)N[C@@H](CCC(=O)O)C(=O)N[C@H](C(=O)N[C@@H](CC(N)=O)C(=O)NC(C)(C)C(=O)N[C@@H](CCC(N)=O)C(=O)N[C@H](C(=O)N[C@@H](CC(C)C)C(=O)N[C@@H](C)C(=O)N[C@@H](CCC(N)=O)C(=O)N[C@H](C(N)=O)C(C)C)[C@@H](C)CC)[C@@H](C)O)[C@@H](C)CC)[C@@H](C)CC)C(C)C)C(C)C [compound 244] (Ac-IVLSLD[dV]PIKLK([γGlu-γGlu-C20 diacid])KILLEQEKQKAQREQAETN[Aib]QILAQV-NH2)						0.28 nM	8 % I	> 250 nM
